Results on 1 compound are retold here after patent publication US9795650B2, “Romidepsin formulations and uses thereof” (Celgene Corporation, priority 2013, dated 2017).

The data set is described as follows: Solubility of romidepsin in solvents. In kind it is physicochemical. From the text:
In one embodiment, the romidepsin liquid concentrate for dilution is formulated in a solvent system. […] Solubility of romidepsin was studied in the following solvents and solvent mixtures: glycerin:EtOH (1:1); PEG 300; PEG 400; Tween 80:EtOH (1:1); dimethylacetamide (DMA); SolutolHS15:EtOH (1:1); NMP; Water; EtOH:PEG 400 (1:1); EtOH;water (4:6); EtOH; EtOH:PG (80:20); EtOH:PG (60:40); EtOH:PG (40:60); EtOH:PG (20:80); PG; EtOH:PG (40:60)+10% water; EtOH:PG (40:60)+butylated hydroxyanizole (BHA)/butylated hydroxytoluebe (BHT); and EtOH:PG (40:60)+ascorbic acid.

Turning to `C/C=C1\NC(=O)[C@H]2CSSCC/C=C/[C@H](CC(=O)N[C@H](C(C)C)C(=O)N2)OC(=O)[C@H](C(C)C)NC1=O` [Romidepsin], the Solubility in water entry is listed as “practically insoluble in water”.
